The values below are quoted from earlier work in patent publication US20220340870A1, “FUNCTIONAL NEUROMODULATORY ASSEMBLOIDS” (The Board of Trustees of the Leland Stanford Junior …, priority 2019, published 2022).

The target in this series is Smo (Homo sapiens, UniProt Q99835). As to conditions: interacting with the Smo heptahelical domain.
Smo, sequence (Q99835 28-787): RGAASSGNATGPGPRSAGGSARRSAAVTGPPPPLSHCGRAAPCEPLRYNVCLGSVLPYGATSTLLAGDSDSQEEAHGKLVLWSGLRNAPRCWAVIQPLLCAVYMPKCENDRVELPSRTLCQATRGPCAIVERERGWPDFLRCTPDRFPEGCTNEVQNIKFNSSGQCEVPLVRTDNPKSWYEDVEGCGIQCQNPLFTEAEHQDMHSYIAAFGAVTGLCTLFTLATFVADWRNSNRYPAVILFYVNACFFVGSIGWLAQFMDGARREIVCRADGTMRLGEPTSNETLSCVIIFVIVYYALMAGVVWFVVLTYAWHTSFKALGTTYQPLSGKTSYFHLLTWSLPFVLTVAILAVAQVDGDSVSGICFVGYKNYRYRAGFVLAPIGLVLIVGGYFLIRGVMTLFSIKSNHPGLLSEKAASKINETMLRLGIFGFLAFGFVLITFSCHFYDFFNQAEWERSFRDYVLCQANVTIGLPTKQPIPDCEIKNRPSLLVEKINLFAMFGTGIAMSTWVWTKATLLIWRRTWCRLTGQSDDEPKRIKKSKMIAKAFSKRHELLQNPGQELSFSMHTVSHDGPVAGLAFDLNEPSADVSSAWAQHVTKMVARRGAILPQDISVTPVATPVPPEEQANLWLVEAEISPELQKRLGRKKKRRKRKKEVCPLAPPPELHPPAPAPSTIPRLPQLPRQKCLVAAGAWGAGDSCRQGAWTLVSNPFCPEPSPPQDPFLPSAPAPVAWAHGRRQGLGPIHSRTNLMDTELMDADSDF

A word on the Kd: it is a measure of binding affinity in units of concentration. Take `CNC1CCC(N(Cc2cccc(-c3ccncc3)c2)C(=O)c2sc3ccccc3c2Cl)CC1` (stereo not shown) [SAG]: the Kd is 59 nM.
